Counter-ions that a name gives are not always drawn.
Experiments:
Format in all cases: physicochemical
[1] = patch pre-formulation, saturated concentration in adhesive; conditions: DURO-TAK 87-2051 adhesive; phosphate disodium salt
Protocol: To each solution, 175 μL of the transdermal adhesive DURO-TAK 87-2051 (51.5 w/v %) was added, and vortexed. Then 2.0 μL of α-tocopherol and 2.5 μL of diethylene glycol monoethyl ether were added and vortexed. The visual solubility was assessed.
To this solution 4 mg of α-tocopherol in 3 mL ethyl acetate was added and 167 μL of the transdermal adhesive DURO-TAK 87-2051 (51.5 w/v %) in 7 mL ethyl acetate with 6 μL diethylene glycol monoethyl ether was also added.
Each solution (3×3 cm) was cast onto the backing (3M™ Scotchpak™ Polyester Backing Film Laminate 9730, UK) to determine the clarity, and the saturation limit of the test agents in the adhesive mixtures.

[2] = chemical stability on storage over 4 weeks
Protocol: The chemical stability of cholecalciferol phosphate acid/disodium salt was assessed in three different conditions over a 4-week period. Aliquots of 2 mg for each sample was stored at room temperature, 4° C., and −20° C. in a glass bottle covered with foil. A 20 mL sample of MeOH and MeOH:water (90:10) was added to cholecalciferol phosphate acid and cholecalciferol phosphate disodium salt, and the concentration and purity were assessed every week by the HPLC method described previously. The peak area was used to calculate sample concentration and the gradient of the data points being used to calculate the degradation rate.

[3] = solubility of disodium salt in water by HPLC; conditions: thermodynamic from solid, distilled water
Protocol: Cholecalciferol phosphate disodium salt was added into 1.5 mL distilled water until it generated precipitation. The supersaturated solution was filtered into a glass bottle through a 0.45 μm syringe filter, diluted in water (1:100), then MeOH was added to make MeOH:water (90:10), and injected into the HPLC.

C=C1CC[C@H](OP(=O)(O)O)C/C1=C/C=C1\CCC[C@@]2(C)C1CC[C@@H]2[C@H](C)CCCC(C)C (stereo partly shown) [Cholecalciferol phosphate disodium salt, cholecalciferol phosphate disodium salt]
saturated concentration in patch formulation (highest loading without precipitation) [1]: 13.57 w/w % | change of purity over 4 weeks ([2]; all storage conditions): less than 1% | degradation over 4 weeks ([2]; room temperature, 4° C. and −20° C.): did not degrade at any of the storage conditions | solubility [3]: 78.7 mg/mL

Source: patent publication US12473310B2, “Vitamin D3 phosphate and pharmaceutically acceptable salts thereof, pharmaceutical compositions comprising the compound and methods for preparing the compound” (King's College London, priority 2020, dated 2025)
